In paper PMC12090182, “Repurposing of the RIPK1-Selective Benzo[1,4]oxazepin-4-one Scaffold for the Development of a Type III LIMK1/2 Inhibitor” (ACS Chemical Biology, 2025):
Like-named read-outs stand apart in the source and are kept apart here.

Test system: HEK293T cells
Type: cell-based
Conditions: HEK293T
How it was run: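 HEK293T and U2OS cells (DMEM) and MRC-9 fibroblasts (EMEM) exposed to compounds at 1 and 10 μM. Live-cell confocal imaging of cell shape and fluorescence before and at 12, 24 and 48 h. Normalized to 0.1% DMSO; biological duplicates with SEM.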

[1] = 1 µM, 0 h, biological replicate 1
[2] = 1 µM, 0 h, biological replicate 2
[3] = 1 µM, 12 h, biological replicate 1
[4] = 1 µM, 12 h, biological replicate 2
[5] = 1 µM, 24 h, biological replicate 1
[6] = 1 µM, 24 h, biological replicate 2
[7] = 1 µM, 48 h, biological replicate 1
[8] = 1 µM, 48 h, biological replicate 2
[9] = 10 µM, 0 h, biological replicate 1
[10] = 10 µM, 0 h, biological replicate 2
[11] = 10 µM, 12 h, biological replicate 1
[12] = 10 µM, 12 h, biological replicate 2
[13] = 10 µM, 24 h, biological replicate 1
[14] = 10 µM, 24 h, biological replicate 2
[15] = 10 µM, 48 h, biological replicate 1
[16] = 10 µM, 48 h, biological replicate 2

Structure (SMILES): CC(C)C(=O)Nc1ncc(-c2cc(C(F)F)nn2-c2c(Cl)cccc2Cl)s1 [LIMKi3]
- Cell count normalized to cells treated with DMSO control [1]: 1.015
- Cell count per well [1]: 303
- Population Fragmented Nuclei (%) [1]: 7.35%
- Population Healthy Nuclei (%) [1]: 47.06%
- Population Pyknosed Nuclei (%) [1]: 45.59%
- Population apoptotic cell (%) [1]: 38.71%
- Population cell that influence microtubule strucutre (%) [1]: 19.53%
- Population with increased mitochondrial mass (%) [1]: 60.16%
- Population with membrane disruption (%) [1]: 0.00%
- Cell count normalized to cells treated with DMSO control [2]: 1.15
- Cell count per well [2]: 263
- Population Fragmented Nuclei (%) [2]: 1.64%
- Population Healthy Nuclei (%) [2]: 65.98%
- Population Pyknosed Nuclei (%) [2]: 32.38%
- Population apoptotic cell (%) [2]: 63.29%
- Population cell that influence microtubule strucutre (%) [2]: 26.71%
- Population with increased mitochondrial mass (%) [2]: 85.09%
- Population with membrane disruption (%) [2]: 0.00%
- Cell count normalized to cells treated with DMSO control [3]: 0.9245
- Cell count per well [3]: 421
- Population Fragmented Nuclei (%) [3]: 4.05%
- Population Healthy Nuclei (%) [3]: 82.03%
- Population Pyknosed Nuclei (%) [3]: 13.92%
- Population apoptotic cell (%) [3]: 40.00%
- Population cell that influence microtubule strucutre (%) [3]: 44.44%
- Population with increased mitochondrial mass (%) [3]: 48.77%
- Population with membrane disruption (%) [3]: 0.62%
- Cell count normalized to cells treated with DMSO control [4]: 1.019
- Cell count per well [4]: 357
- Population Fragmented Nuclei (%) [4]: 6.58%
- Population Healthy Nuclei (%) [4]: 83.39%
- Population Pyknosed Nuclei (%) [4]: 10.03%
- Population apoptotic cell (%) [4]: 53.13%
- Population cell that influence microtubule strucutre (%) [4]: 34.59%
- Population with increased mitochondrial mass (%) [4]: 63.16%
- Population with membrane disruption (%) [4]: 0.38%
- Cell count normalized to cells treated with DMSO control [5]: 0.9573
- Cell count per well [5]: 581
- Population Fragmented Nuclei (%) [5]: 6.08%
- Population Healthy Nuclei (%) [5]: 81.40%
- Population Pyknosed Nuclei (%) [5]: 12.52%
- Population apoptotic cell (%) [5]: 38.57%
- Population cell that influence microtubule strucutre (%) [5]: 25.27%
- Population with increased mitochondrial mass (%) [5]: 30.55%
- Population with membrane disruption (%) [5]: 1.32%
- Cell count normalized to cells treated with DMSO control [6]: 1.028
- Cell count per well [6]: 464
- Population Fragmented Nuclei (%) [6]: 11.83%
- Population Healthy Nuclei (%) [6]: 78.42%
- Population Pyknosed Nuclei (%) [6]: 9.74%
- Population apoptotic cell (%) [6]: 30.95%
- Population cell that influence microtubule strucutre (%) [6]: 20.41%
- Population with increased mitochondrial mass (%) [6]: 38.46%
- Population with membrane disruption (%) [6]: 0.30%
- Cell count normalized to cells treated with DMSO control [7]: 0.8177
- Cell count per well [7]: 827
- Population Fragmented Nuclei (%) [7]: 14.02%
- Population Healthy Nuclei (%) [7]: 79.47%
- Population Pyknosed Nuclei (%) [7]: 6.51%
- Population apoptotic cell (%) [7]: 28.85%
- Population cell that influence microtubule strucutre (%) [7]: 17.17%
- Population with increased mitochondrial mass (%) [7]: 22.36%
- Population with membrane disruption (%) [7]: 1.10%
- Cell count normalized to cells treated with DMSO control [8]: 1.021
- Cell count per well [8]: 697
- Population Fragmented Nuclei (%) [8]: 11.19%
- Population Healthy Nuclei (%) [8]: 83.72%
- Population Pyknosed Nuclei (%) [8]: 5.09%
- Population apoptotic cell (%) [8]: 14.29%
- Population cell that influence microtubule strucutre (%) [8]: 14.58%
- Population with increased mitochondrial mass (%) [8]: 22.05%
- Population with membrane disruption (%) [8]: 0.69%
- Cell count normalized to cells treated with DMSO control [9]: 1.049
- Cell count per well [9]: 313
- Population Fragmented Nuclei (%) [9]: 6.13%
- Population Healthy Nuclei (%) [9]: 53.26%
- Population Pyknosed Nuclei (%) [9]: 40.61%
- Population apoptotic cell (%) [9]: 42.45%
- Population cell that influence microtubule strucutre (%) [9]: 17.27%
- Population with increased mitochondrial mass (%) [9]: 58.99%
- Population with membrane disruption (%) [9]: 0.00%
- Cell count normalized to cells treated with DMSO control [10]: 1.189
- Cell count per well [10]: 272
- Population Fragmented Nuclei (%) [10]: 5.14%
- Population Healthy Nuclei (%) [10]: 69.17%
- Population Pyknosed Nuclei (%) [10]: 25.69%
- Population apoptotic cell (%) [10]: 58.46%
- Population cell that influence microtubule strucutre (%) [10]: 23.43%
- Population with increased mitochondrial mass (%) [10]: 84.57%
- Population with membrane disruption (%) [10]: 0.00%
- Cell count normalized to cells treated with DMSO control [11]: 0.8125
- Cell count per well [11]: 370
- Population Fragmented Nuclei (%) [11]: 7.52%
- Population Healthy Nuclei (%) [11]: 78.06%
- Population Pyknosed Nuclei (%) [11]: 14.42%
- Population apoptotic cell (%) [11]: 54.35%
- Population cell that influence microtubule strucutre (%) [11]: 58.63%
- Population with increased mitochondrial mass (%) [11]: 84.34%
- Population with membrane disruption (%) [11]: 0.80%
- Cell count normalized to cells treated with DMSO control [12]: 1.053
- Cell count per well [12]: 369
- Population Fragmented Nuclei (%) [12]: 5.29%
- Population Healthy Nuclei (%) [12]: 71.47%
- Population Pyknosed Nuclei (%) [12]: 23.24%
- Population apoptotic cell (%) [12]: 41.77%
- Population cell that influence microtubule strucutre (%) [12]: 57.61%
- Population with increased mitochondrial mass (%) [12]: 88.89%
- Population with membrane disruption (%) [12]: 1.23%
- Cell count normalized to cells treated with DMSO control [13]: 0.6376
- Cell count per well [13]: 387
- Population Fragmented Nuclei (%) [13]: 7.23%
- Population Healthy Nuclei (%) [13]: 75.14%
- Population Pyknosed Nuclei (%) [13]: 17.63%
- Population apoptotic cell (%) [13]: 40.98%
- Population cell that influence microtubule strucutre (%) [13]: 62.69%
- Population with increased mitochondrial mass (%) [13]: 85.38%
- Population with membrane disruption (%) [13]: 0.38%
- Cell count normalized to cells treated with DMSO control [14]: 0.8682
- Cell count per well [14]: 392
- Population Fragmented Nuclei (%) [14]: 3.68%
- Population Healthy Nuclei (%) [14]: 77.34%
- Population Pyknosed Nuclei (%) [14]: 18.98%
- Population apoptotic cell (%) [14]: 47.76%
- Population cell that influence microtubule strucutre (%) [14]: 63.74%
- Population with increased mitochondrial mass (%) [14]: 83.88%
- Population with membrane disruption (%) [14]: 0.73%
- Cell count normalized to cells treated with DMSO control [15]: 0.5082
- Cell count per well [15]: 514
- Population Fragmented Nuclei (%) [15]: 8.84%
- Population Healthy Nuclei (%) [15]: 75.22%
- Population Pyknosed Nuclei (%) [15]: 15.95%
- Population apoptotic cell (%) [15]: 52.70%
- Population cell that influence microtubule strucutre (%) [15]: 69.63%
- Population with increased mitochondrial mass (%) [15]: 76.50%
- Population with membrane disruption (%) [15]: 0.29%
- Cell count normalized to cells treated with DMSO control [16]: 0.7148
- Cell count per well [16]: 488
- Population Fragmented Nuclei (%) [16]: 9.82%
- Population Healthy Nuclei (%) [16]: 75.45%
- Population Pyknosed Nuclei (%) [16]: 14.73%
- Population apoptotic cell (%) [16]: 34.85%
- Population cell that influence microtubule strucutre (%) [16]: 65.68%
- Population with increased mitochondrial mass (%) [16]: 74.26%
- Population with membrane disruption (%) [16]: 1.78%
